According to PubChem BioAssay AID1963968 (Molecular Pharmacology Branch, DTP, NCI, 2024):

Test system: 945468-187-T-J3-PDC spheroids with HUVEC/MSC, viability
Experiment: Anticancer human tumor 945468-187-T-J3-PDC patient-derived rectal carcinoma cell line growth inhibition [PI3K]
Conditions: for IC50: curve of first compound; for viability, T/C: stronger effect = lower value
Summary of the method: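 Agents were dosed from a top concentration near clinical Cmax (otherwise 10 microM) in half-log decrements, alone or combined with PI3K inhibitors. The spheroids contain tumor cells plus endothelial (HUVEC) and MSC stroma; viability is measured.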

[1] = second compound 0.0316 µM, first compound 0.0316 µM
[2] = second compound 0.0316 µM, first compound 0.1 µM
[3] = second compound 0.1 µM, first compound 0.0316 µM
[4] = second compound 0.1 µM, first compound 0.1 µM
[5] = second compound 0.316 µM, first compound 0.0316 µM
[6] = second compound 0.316 µM, first compound 0.1 µM
[7] = second compound 1 µM, first compound 0.0316 µM
[8] = second compound 1 µM, first compound 0.1 µM
[9] = second compound 3.16 µM, first compound 0.0316 µM
[10] = second compound 3.16 µM, first compound 0.1 µM
[11] = second compound 10 µM, first compound 0.0316 µM
[12] = second compound 10 µM, first compound 0.1 µM
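Further: spheroids exposed to agents for 7 days before viability read.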
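Wherever viability, T/C is given: 100% = DMSO vehicle control viability.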

`CC(=O)c1c(C)c2cnc(Nc3ccc(N4CCNCC4)cn3)nc2n(C2CCCC2)c1=O` + CC(Nc1ncnc2nc[nH]c12)c1cc2cccc(Cl)c2c(=O)n1-c1ccccc1 was tested, and the IC50 (second compound 0.0316 µM) was over 0.1 µM, the IC50 (second compound 0.1 µM) was over 0.1 µM and the IC50 (second compound 0.316 µM) was over 0.1 µM. For the same molecule, the IC50 (second compound 1 µM) was over 0.1 µM, the IC50 (second compound 3.16 µM) was over 0.1 µM and the IC50 (second compound 10 µM) was over 0.1 µM. It also gave a viability, T/C (second compound 0.0316 µM, first compound 0.000316 µM) of 102%, a viability, T/C (second compound 0.0316 µM, first compound 0.001 µM) of 87.6% and a viability, T/C (second compound 0.0316 µM, first compound 0.00316 µM) of 106%. For the same molecule, the viability, T/C (second compound 0.0316 µM, first compound 0.01 µM) was 92.5%, the viability, T/C [1] was 96.6% and the viability, T/C [2] was 92.6%. For the same molecule, the viability, T/C (second compound 0.1 µM, first compound 0.000316 µM) was 91.4%, the viability, T/C (second compound 0.1 µM, first compound 0.001 µM) was 100% and the viability, T/C (second compound 0.1 µM, first compound 0.00316 µM) was 87.5%. For the same molecule, the viability, T/C (second compound 0.1 µM, first compound 0.01 µM) was 91.4%, the viability, T/C [3] was 99.1% and the viability, T/C [4] was 113%. For the same molecule, the viability, T/C (second compound 0.316 µM, first compound 0.000316 µM) was 111%, the viability, T/C (second compound 0.316 µM, first compound 0.001 µM) was 89.2% and the viability, T/C (second compound 0.316 µM, first compound 0.00316 µM) was 94.1%. The viability, T/C (second compound 0.316 µM, first compound 0.01 µM) was 94.5%, the viability, T/C [5] was 99.3% and the viability, T/C [6] was 98%. It also gave a viability, T/C (second compound 1 µM, first compound 0.000316 µM) of 98.3%, a viability, T/C (second compound 1 µM, first compound 0.001 µM) of 93.5% and a viability, T/C (second compound 1 µM, first compound 0.00316 µM) of 86.5%. For the same molecule, the viability, T/C (second compound 1 µM, first compound 0.01 µM) was 93.2%, the viability, T/C [7] was 102% and the viability, T/C [8] was 89.4%. The viability, T/C (second compound 3.16 µM, first compound 0.000316 µM) was 95.2%, the viability, T/C (second compound 3.16 µM, first compound 0.001 µM) was 95% and the viability, T/C (second compound 3.16 µM, first compound 0.00316 µM) was 99.1%. It also gave a viability, T/C (second compound 3.16 µM, first compound 0.01 µM) of 98.6%, a viability, T/C [9] of 105% and a viability, T/C [10] of 93.8%. For the same molecule, the viability, T/C (second compound 10 µM, first compound 0.000316 µM) was 106%, the viability, T/C (second compound 10 µM, first compound 0.001 µM) was 107% and the viability, T/C (second compound 10 µM, first compound 0.00316 µM) was 106%. For the same molecule, the viability, T/C (second compound 10 µM, first compound 0.01 µM) was 108%, the viability, T/C [11] was 106% and the viability, T/C [12] was 103%.
For `CNC(=O)c1ccc(N2C(=S)N(c3ccc(C#N)c(C(F)(F)F)c3)C(=O)C2(C)C)cc1F` + CC(Nc1ncnc2nc[nH]c12)c1cc2cccc(Cl)c2c(=O)n1-c1ccccc1, the IC50 (second compound 0.0316 µM) was over 10 µM, the IC50 (second compound 0.1 µM) was over 10 µM and the IC50 (second compound 0.316 µM) was over 10 µM. It also gave an IC50 (second compound 1 µM) of over 10 µM, an IC50 (second compound 3.16 µM) of over 10 µM and an IC50 (second compound 10 µM) of over 10 µM. The viability, T/C [1] was 101%, the viability, T/C [2] was 113% and the viability, T/C (second compound 0.0316 µM, first compound 0.316 µM) was 98.4%. For the same molecule, the viability, T/C (second compound 0.0316 µM, first compound 1 µM) was 102%, the viability, T/C (second compound 0.0316 µM, first compound 3.16 µM) was 98.4% and the viability, T/C (second compound 0.0316 µM, first compound 10 µM) was 100%. It also gave a viability, T/C [3] of 99.7%, a viability, T/C [4] of 109% and a viability, T/C (second compound 0.1 µM, first compound 0.316 µM) of 94.1%. It also gave a viability, T/C (second compound 0.1 µM, first compound 1 µM) of 116%, a viability, T/C (second compound 0.1 µM, first compound 3.16 µM) of 103% and a viability, T/C (second compound 0.1 µM, first compound 10 µM) of 106%. For the same molecule, the viability, T/C [5] was 99.5%, the viability, T/C [6] was 93.8% and the viability, T/C (second compound 0.316 µM, first compound 0.316 µM) was 100%. It also gave a viability, T/C (second compound 0.316 µM, first compound 1 µM) of 108%, a viability, T/C (second compound 0.316 µM, first compound 3.16 µM) of 101% and a viability, T/C (second compound 0.316 µM, first compound 10 µM) of 97.1%. For the same molecule, the viability, T/C [7] was 96.5%, the viability, T/C [8] was 102% and the viability, T/C (second compound 1 µM, first compound 0.316 µM) was 107%. The viability, T/C (second compound 1 µM, first compound 1 µM) was 106%, the viability, T/C (second compound 1 µM, first compound 3.16 µM) was 105% and the viability, T/C (second compound 1 µM, first compound 10 µM) was 94.8%. For the same molecule, the viability, T/C [9] was 102%, the viability, T/C [10] was 113% and the viability, T/C (second compound 3.16 µM, first compound 0.316 µM) was 95%. It also gave a viability, T/C (second compound 3.16 µM, first compound 1 µM) of 107%, a viability, T/C (second compound 3.16 µM, first compound 3.16 µM) of 92.9% and a viability, T/C (second compound 3.16 µM, first compound 10 µM) of 110%. For the same molecule, the viability, T/C [11] was 99.5%, the viability, T/C [12] was 99.2% and the viability, T/C (second compound 10 µM, first compound 0.316 µM) was 107%. For the same molecule, the viability, T/C (second compound 10 µM, first compound 1 µM) was 99.2%, the viability, T/C (second compound 10 µM, first compound 3.16 µM) was 105% and the viability, T/C (second compound 10 µM, first compound 10 µM) was 109%.
In the case of `Cn1cnc2c(F)c(Nc3ccc(Br)cc3Cl)c(C(=O)NOCCO)cc21` + CC(Nc1ncnc2nc[nH]c12)c1cc2cccc(Cl)c2c(=O)n1-c1ccccc1, the IC50 (second compound 0.0316 µM) is reported as over 3 µM, the IC50 (second compound 0.1 µM) is reported as over 3 µM and the IC50 (second compound 0.316 µM) is reported as over 3 µM. For the same molecule, the IC50 (second compound 1 µM) was over 3 µM, the IC50 (second compound 3.16 µM) was over 3 µM and the IC50 (second compound 10 µM) was over 3 µM. It also gave a viability, T/C (second compound 0.0316 µM, first compound 0.00949 µM) of 106%, a viability, T/C (second compound 0.0316 µM, first compound 0.03 µM) of 103% and a viability, T/C (second compound 0.0316 µM, first compound 0.0949 µM) of 116%. It also gave a viability, T/C (second compound 0.0316 µM, first compound 0.3 µM) of 115%, a viability, T/C (second compound 0.0316 µM, first compound 0.949 µM) of 104% and a viability, T/C (second compound 0.0316 µM, first compound 3 µM) of 87.2%. The viability, T/C (second compound 0.1 µM, first compound 0.00949 µM) was 96%, the viability, T/C (second compound 0.1 µM, first compound 0.03 µM) was 98% and the viability, T/C (second compound 0.1 µM, first compound 0.0949 µM) was 109%. The viability, T/C (second compound 0.1 µM, first compound 0.3 µM) was 104%, the viability, T/C (second compound 0.1 µM, first compound 0.949 µM) was 101% and the viability, T/C (second compound 0.1 µM, first compound 3 µM) was 95.6%. For the same molecule, the viability, T/C (second compound 0.316 µM, first compound 0.00949 µM) was 100%, the viability, T/C (second compound 0.316 µM, first compound 0.03 µM) was 104% and the viability, T/C (second compound 0.316 µM, first compound 0.0949 µM) was 108%. It also gave a viability, T/C (second compound 0.316 µM, first compound 0.3 µM) of 111%, a viability, T/C (second compound 0.316 µM, first compound 0.949 µM) of 112% and a viability, T/C (second compound 0.316 µM, first compound 3 µM) of 89%. For the same molecule, the viability, T/C (second compound 1 µM, first compound 0.00949 µM) was 97.2%, the viability, T/C (second compound 1 µM, first compound 0.03 µM) was 99.6% and the viability, T/C (second compound 1 µM, first compound 0.0949 µM) was 110%. The viability, T/C (second compound 1 µM, first compound 0.3 µM) was 103%, the viability, T/C (second compound 1 µM, first compound 0.949 µM) was 106% and the viability, T/C (second compound 1 µM, first compound 3 µM) was 84.1%. The viability, T/C (second compound 3.16 µM, first compound 0.00949 µM) was 94.5%, the viability, T/C (second compound 3.16 µM, first compound 0.03 µM) was 119% and the viability, T/C (second compound 3.16 µM, first compound 0.0949 µM) was 105%. The viability, T/C (second compound 3.16 µM, first compound 0.3 µM) was 107%, the viability, T/C (second compound 3.16 µM, first compound 0.949 µM) was 102% and the viability, T/C (second compound 3.16 µM, first compound 3 µM) was 73.8%. It also gave a viability, T/C (second compound 10 µM, first compound 0.00949 µM) of 101%, a viability, T/C (second compound 10 µM, first compound 0.03 µM) of 98.8% and a viability, T/C (second compound 10 µM, first compound 0.0949 µM) of 97.2%. For the same molecule, the viability, T/C (second compound 10 µM, first compound 0.3 µM) was 98.4%, the viability, T/C (second compound 10 µM, first compound 0.949 µM) was 93.7% and the viability, T/C (second compound 10 µM, first compound 3 µM) was 60.6%.
